PubChem BioAssay (NCI)
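All cell lines were grown in 96-well plates and treated with compound for 48 hours. GI50: concentration for 50% inhibition of growth. Definition used: TGI = concentration required for complete inhibition of growth.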

Key:
Experiment in all cases: NCI tumour cell line growth inhibition, 48 h
[1] = test system: 786-0 renal
[2] = test system: A498 renal
[3] = test system: A549 NSCLC
[4] = test system: ACHN renal
[5] = test system: CAKI-1 renal
[6] = test system: CCRF-CEM leukemia
[7] = test system: COLO 205 colon
[8] = test system: DU-145 prostate
[9] = test system: EKVX NSCLC
[10] = test system: HCC-2998 colon
[11] = test system: HCT-116 colon
[12] = test system: HL-60(TB) leukemia
[13] = test system: HOP-62 NSCLC
[14] = test system: HOP-92 NSCLC
[15] = test system: HS 578T breast
[16] = test system: HT29 colon
[17] = test system: IGROV1 ovarian
[18] = test system: KM12 colon
[19] = test system: M14 melanoma
[20] = test system: MALME-3M melanoma
[21] = test system: MCF7 breast
[22] = test system: MDA-MB-231 breast
[23] = test system: MDA-MB-435
[24] = test system: MOLT-4 leukemia
[25] = test system: NCI-H226 lung
[26] = test system: NCI-H522 lung
[27] = test system: NCI/ADR-RES ovarian
[28] = test system: OVCAR-3 ovarian
[29] = test system: OVCAR-4 ovarian
[30] = test system: OVCAR-5 ovarian
[31] = test system: OVCAR-8 ovarian
[32] = test system: PC-3 prostate
[33] = test system: RXF 393 renal
[34] = test system: SF-268 CNS
[35] = test system: SF-295 CNS
[36] = test system: SF-539 CNS
[37] = test system: SK-MEL-2 melanoma
[38] = test system: SK-MEL-28 melanoma
[39] = test system: SK-MEL-5 melanoma
[40] = test system: SK-OV-3 ovarian
[41] = test system: SN12C renal
[42] = test system: SNB-19 CNS
[43] = test system: SNB-75 CNS
[44] = test system: SR leukemia
[45] = test system: TK-10 renal
[46] = test system: UACC-257 melanoma
[47] = test system: UACC-62 melanoma
[48] = test system: UO-31 renal
[49] = test system: BT-549 breast
[50] = test system: LOX IMVI melanoma
[51] = test system: NCI-H23 lung
[52] = test system: NCI-H460 lung
[53] = test system: RPMI-8226 leukemia
[54] = test system: T-47D breast
[55] = test system: U251 CNS
[56] = test system: K-562 leukemia

With `COC(=O)C1(C)CC2C(C)(CCC3(C)C4=CC=C5C(=CC(=O)C(O)=C5C)C4(C)CCC23C)CC1O` (configuration not stated) the TGI [1] was 0.477 µM, the TGI [2] was 3.51 µM and the TGI [3] was 4.94 µM. It also gave a TGI [4] of 1.53 µM, a TGI [5] of 2.27 µM and a TGI [6] of 0.538 µM. For the same compound, the TGI [7] was 1.72 µM, the TGI [8] was 2.71 µM and the TGI [9] was 2.7 µM. The TGI [10] was 2.9 µM, the TGI [11] was 1.89 µM and the TGI [12] was 0.771 µM. For the same compound, the TGI [13] was 3.51 µM, the TGI [14] was 2.82 µM and the TGI [15] was 14.4 µM. It also gave a TGI [16] of 2.53 µM, a TGI [17] of 1.18 µM and a TGI [18] of 4.09 µM. The TGI [19] was 3.26 µM, the TGI [20] was 2.24 µM and the TGI [21] was 2.86 µM. For the same compound, the TGI [22] was 1.77 µM, the TGI [23] was 2.31 µM and the TGI [24] was 0.931 µM. It also gave a TGI [25] of 4.46 µM, a TGI [26] of 0.54 µM and a TGI [27] of 2.93 µM. It also gave a TGI [28] of 2.24 µM, a TGI [29] of 3.4 µM and a TGI [30] of 3.32 µM. For the same compound, the TGI [31] was 2.38 µM, the TGI [32] was 3.12 µM and the TGI [33] was 1.37 µM. It also gave a TGI [34] of 2.63 µM, a TGI [35] of 3.43 µM and a TGI [36] of 3.3 µM. It also gave a TGI [37] of 2.94 µM, a TGI [38] of 2.1 µM and a TGI [39] of 3.28 µM. For the same compound, the TGI [40] was 4.13 µM, the TGI [41] was 3.33 µM and the TGI [42] was 2.81 µM. For the same compound, the TGI [43] was 3.54 µM, the TGI [44] was 0.575 µM and the TGI [45] was 1.59 µM. For the same compound, the TGI [46] was 4.28 µM, the TGI [47] was 2.32 µM and the TGI [48] was 3.19 µM.

With `Cc1cc(C)c2c(c1)CC1(Cc3ccc(C)c(C)c3C1=O)C2=O` (configuration not stated) the TGI [1] was > 100 µM, the TGI [2] was > 100 µM and the TGI [3] was > 100 µM. For the same compound, the TGI [49] was > 100 µM, the TGI [5] was > 100 µM and the TGI [8] was > 100 µM. The TGI [10] was > 100 µM, the TGI [14] was > 100 µM and the TGI [15] was > 100 µM. The TGI [50] was > 100 µM, the TGI [19] was > 100 µM and the TGI [20] was > 100 µM. The TGI [22] was > 100 µM, the TGI [51] was > 100 µM and the TGI [52] was > 100 µM. For the same compound, the TGI [26] was > 100 µM, the TGI [28] was > 100 µM and the TGI [29] was > 100 µM. For the same compound, the TGI [30] was > 100 µM, the TGI [31] was > 100 µM and the TGI [32] was > 100 µM. The TGI [53] was > 100 µM, the TGI [33] was > 100 µM and the TGI [34] was > 100 µM. For the same compound, the TGI [36] was > 100 µM, the TGI [37] was > 100 µM and the TGI [38] was > 100 µM. For the same compound, the TGI [39] was > 100 µM, the TGI [40] was > 100 µM and the TGI [41] was > 100 µM. The TGI [42] was > 100 µM, the TGI [43] was > 100 µM and the TGI [54] was > 100 µM. The TGI [45] was > 100 µM, the TGI [55] was > 100 µM and the TGI [46] was > 100 µM. The TGI [47] was > 100 µM and the TGI [48] was > 100 µM.

In the case of `Cc1ccc(C2CC3(c4ccccc4)ON=C(c4ccccc4)N3c3ccccc3S2)cc1` (configuration not stated), the GI50 [11] is reported as 8.08 µM, the GI50 [56] is reported as 38.5 µM and the GI50 [24] is reported as 38.9 µM. The GI50 [55] was 20.6 µM.

`C[C@@H](Nc1nc(Nc2ccc(F)c(Cl)c2)nc2c(C3=CCNCC3)cccc12)C1CC1` was tested, and the GI50 [4] was 1.81 µM, the TGI [4] was 3.32 µM and the GI50 [5] was 1.58 µM. The TGI [5] was 2.99 µM, the GI50 [6] was 2.21 µM and the TGI [6] was 5.54 µM. For the same compound, the GI50 [8] was 1.64 µM, the TGI [8] was 3.04 µM and the GI50 [15] was 1.99 µM. It also gave a TGI [15] of 4.82 µM, a GI50 [22] of 1.72 µM and a TGI [22] of 3.28 µM. The GI50 [25] was 2.31 µM, the TGI [25] was 5.03 µM and the GI50 [30] was 1.53 µM. The TGI [30] was 3.25 µM, the GI50 [36] was 1.68 µM and the TGI [36] was 3.17 µM. It also gave a GI50 [54] of 1.91 µM, a TGI [54] of 4.38 µM and a GI50 [47] of 1.82 µM. For the same compound, the TGI [47] was 3.36 µM.
